Like-named read-outs stand apart in the source and are kept apart here.
Legend:
[1] = Quantitative splicing assay (HTT), qPCR; type: cell-based, human; settings: Homo sapiens, GM04724, 24 h, GM04724 lymphoblasts, read-out: HTT Splicing: E49-50 EC50
Description: Example A9: Quantitative Splicing Assay (HTT)
GM04724 (CAG 70/20) Huntington's disease patient lymphoblasts (Coriell) are plated in 96-well v-bottom plates at 50,000 cells/well. Immediately after plating, cells are dosed with compound for 24 h at concentrations ranging from 2.5 uM to 0.15 nM (0.1% DMSO). Treated cells are lysed and cDNA synthesized using the Fast Advanced Cells-to-Ct kit (Thermofisher A35378) according to the manufacturer's instructions. 2 uL of each cDNA are used in qPCR reactions to confirm the compound-induced inclusion of a cryptic exon within intron 49 of the Huntingtin (HTT) transcripts. The qPCR reactions are prepared in 384-well plates in 10 uL volume, using TagMan™ Fast Advanced Master Mix [ThermoFisher, 4444965] with primers and probes shown in the table below. Reactions are run in a Quant studio 6 qPCR instrument with default settings.

[2] = system: mHTT protein in GM04724 (CAG 70/20) Huntington's disease patient lymphoblast cells; assay: mHTT protein assay, 2B7-MW1 assay via Mesoscale Discovery (MSD); type: cell-based, human
How it was run: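 Signal from the 2B7-MW1 antibody pair on MSD, rising with polyQ length and smaller HTT fragments, measured mHTT after 48 h compound exposure (0.6 nM–10 μM) in GM04724 cells. A parallel replicate plate gave CellTiter Glo viability.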

[3] = system: SMN protein in spinal muscular atrophy (SMA) patient fibroblasts (GM03813, Coriell); assay: SMN protein assay, Mesoscale Discovery (MSD); type: cell-based, human; settings: for EC50: read-out: SMN2 protein EC50
How it was run: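 Absolute SMN levels were quantified by MSD against an SMN protein standard curve (1 μg/ml to 19.5 pg/ml) run on each plate. Samples were lysates of GM03813 patient fibroblasts (7000 cells/well) treated 48 hours with compound doses from 2.5 μM down to 0.6 nM.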

[4] = system: MDR1 (P-gp); assay: Blood-brain-barrier (BBB) penetration potential via MDCK-MDR1 permeability assay; settings: dog; for Papp A→B at 120 min, 5 μM: MDCK-MDR1, pH 7.4, MDCK-MDR1: Papp A-B; for Papp B→A at 120 min, 5 μM: MDCK-MDR1, pH 7.4, MDCK-MDR1: Papp B-A
[5] = system: MDR1-MDCK cell monolayers; assay: as above
[6] = system: MDR1; assay: as above; settings: dog, MDCK-MDR1, pH 7.4, MDCK-MDR1: Efflux
[7] = GM04724 Huntington's disease patient lymphoblasts
[8] = SMA patient fibroblasts GM03813, 48 hours, MSD

SMILES | EC50 ([1]; qPCR) | EC50 [2, 7] | EC50 [3, 8] | Papp A→B at 120 min, 5 μM ([4]; A-B direction) | Papp B→A at 120 min, 5 μM ([4]; B-A direction) | MDCK-MDR1: % Recov A-B ([5]; A-B direction) | MDCK-MDR1: % Recov B-A ([5]; B-A direction) | efflux ratio at 120 min, 5 μM ([6]; efflux ratio) | EC50 [1] | EC50 ([2]; GM04724 (CAG 70/20) Huntington's disease patient lymphoblasts) | SMN2 protein EC50 ([3]; SMA patient fibroblasts (GM03813), 48 hours) | Papp A→B at 120 min, 5 μM ([4]; A-B) | Papp B→A at 120 min, 5 μM ([4]; B-A) | MDCK-MDR1: % Recov A-B ([5]; A-B) | MDCK-MDR1: % Recov B-A ([5]; B-A) | efflux ratio at 120 min, 5 μM [6] | SMN2 protein EC50 [3, 8]
CN(c1ccc(-c2ccc(-c3cnn(C)c3)cc2O)nn1)[C@@H]1C[C@H]2CC(F)(F)[C@@H](C1)N2 [Compound 3A, 2-(6-(((1S,3R,5R)-6,6-difluoro-8-azabicyclo[3.2.1]octan-3-yl)(methyl)amino)pyridazin-3-yl)-5-(1-methyl-1H-pyrazol-4-yl)phenol] | 0.01 to 15 nM | 16 to 50 nM | 16 to 50 nM | 19.3 ×10⁻⁶ cm/s | 33.8 ×10⁻⁶ cm/s | 75% | 81% | 2 | – | – | – | – | – | – | – | – | –
CN(c1ccc(-c2ccc(-c3nnco3)cc2O)nn1)[C@@H]1C[C@H]2CC[C@H](N2)[C@@H]1F [Compound 44A, 2-(6-(((1S,2S,3R,5R)-2-fluoro-8-azabicyclo[3.2.1]octan-3-yl)(methyl)amino)pyridazin-3-yl)-5-(1,3,4-oxadiazol-2-yl)phenol] | 16 to 50 nM | 0.01 to 15 nM | 101 to 500 nM | 8.12 ×10⁻⁶ cm/s | 50.9 ×10⁻⁶ cm/s | 87% | 86% | 6 | – | – | – | – | – | – | – | – | –
CN(c1ccc(-c2cc3cnccc3cc2O)nn1)[C@@H]1C[C@H]2CCC[C@H](N2)[C@@H]1F [Compound 121A, 7-(6-(((1S,2S,3R,5R)-2-fluoro-9-azabicyclo[3.3.1]nonan-3-yl)(methyl)amino)pyridazin-3-yl)isoquinolin-6-ol] | – | – | – | – | – | – | – | – | 51 to 100 nM | 16 to 50 nM | E (501 ≤ E ≤ 10.000) | 2.65 ×10⁻⁶ cm/s | 29.8 ×10⁻⁶ cm/s | 81% | 95% | 11 | –
CN(c1ccc(-c2cc3ccncc3s2)nn1)[C@@H]1C[C@H]2CC[C@H](N2)[C@@H]1F [Compound 65A, (1S,2S,3R,5R)-2-fluoro-N-methyl-N-(6-(thieno[2,3-c]pyridin-2-yl)pyridazin-3-yl)-8-azabicyclo[3.2.1]octan-3-amine] | 10 to 501 nM | 101 to 500 nM | 51 to 100 nM | 5.82 ×10⁻⁶ cm/s | 50.5 ×10⁻⁶ cm/s | 94% | 93% | 9 | – | – | – | – | – | – | – | – | –
CN(c1ccc(-c2cc(C#N)c(F)cc2O)nn1)[C@H]1C[C@@H]2CC[C@@H](N2)[C@H]1F [Compound 72B, 2-fluoro-5-(6-(((1R,2R,3S,5S)-2-fluoro-8-azabicyclo[3.2.1]octan-3-yl)(methyl)amino)pyridazin-3-yl)-4-hydroxybenzonitrile] | 101 to 500 nM | 101 to 500 nM | 51 to 100 nM | 10.9 ×10⁻⁶ cm/s | 36.4 ×10⁻⁶ cm/s | 78% | 74% | 3 | – | – | – | – | – | – | – | – | –
CN(c1ccc(-c2ccc(-c3cnn(C)c3)cc2O)nn1)C1CC2COCC(N2)C1F (single isomer, unassigned) [Compound 80A] | 51 to 100 nM | 51 to 100 nM | 101 to 500 nM | 4.93 ×10⁻⁶ cm/s | 53.6 ×10⁻⁶ cm/s | 68% | 88% | 11 | – | – | – | – | – | – | – | – | –
CN(c1ccc(-c2ccc(-c3cnn(C(F)F)c3)cc2O)nn1)[C@H]1C[C@@H]2CC[C@@H](N2)[C@H]1F [Compound 20B, 5-(1-(difluoromethyl)-1H-pyrazol-4-yl)-2-(6-(((1R,2R,3S,5S)-2-fluoro-8-azabicyclo[3.2.1]octan-3-yl)(methyl)amino)pyridazin-3-yl)phenol] | 0.01 to 15 nM | 0.01 to 15 nM | – | 3.59 ×10⁻⁶ cm/s | 39.2 ×10⁻⁶ cm/s | 45% | 65% | 11 | – | – | – | – | – | – | – | – | E (501 ≤ E ≤ 10.000)
CN(c1ccc(-c2ccc(-c3cnn(C(F)F)c3)cc2O)nn1)[C@@H]1C[C@H]2CC[C@H](N2)[C@@H]1F [Compound 20A, 5-(1-(difluoromethyl)-1H-pyrazol-4-yl)-2-(6-(((1S,2S,3R,5R)-2-fluoro-8-azabicyclo[3.2.1]octan-3-yl)(methyl)amino)pyridazin-3-yl)phenol] | 16 to 50 nM | 16 to 50 nM | 16 to 50 nM | 4.68 ×10⁻⁶ cm/s | 39.9 ×10⁻⁶ cm/s | 47% | 71% | 9 | – | – | – | – | – | – | – | – | –
CN(c1ccc(-c2ccc(-n3ccnc3)cc2O)nn1)[C@@H]1C[C@H]2CC(F)(F)[C@@H](C1)N2 [Compound 13A, 2-(6-(((1S,3R,5R)-6,6-difluoro-8-azabicyclo[3.2.1]octan-3-yl)(methyl)amino)pyridazin-3-yl)-5-(1H-imidazol-1-yl)phenol] | 0.01 to 15 nM | 16 to 50 nM | 0.01 to 15 nM | 8.7 ×10⁻⁶ cm/s | 50.5 ×10⁻⁶ cm/s | 92% | 86% | 6 | – | – | – | – | – | – | – | – | –
CN(c1ccc(-c2cc3ncn(C)c(=O)c3cc2O)nn1)[C@@H]1C[C@H]2CC[C@H](N2)[C@@H]1F [Compound 51A, 7-(6-(((1S,2S,3R,5R)-2-fluoro-8-azabicyclo[3.2.1]octan-3-yl)(methyl)amino)pyridazin-3-yl)-6-hydroxy-3-methylquinazolin-4(3H)-one] | 0.01 to 15 nM | 0.01 to 15 nM | – | 0.81 ×10⁻⁶ cm/s | 38 ×10⁻⁶ cm/s | 94% | 86% | 47 | – | – | – | – | – | – | – | – | E (501 ≤ E ≤ 10.000)
CN(c1ccc(-c2cc3ccncc3s2)nn1)[C@H]1C[C@@H]2CC[C@@H](N2)[C@H]1F [Compound 65B, (1R,2R,3S,5S)-2-fluoro-N-methyl-N-(6-(thieno[2,3-c]pyridin-2-yl)pyridazin-3-yl)-8-azabicyclo[3.2.1]octan-3-amine] | 101 to 500 nM | 51 to 100 nM | 16 to 50 nM | 6.9 ×10⁻⁶ cm/s | 54.6 ×10⁻⁶ cm/s | 84% | 87% | 8 | – | – | – | – | – | – | – | – | –
CN(c1ccc(-c2ccc(-n3nccn3)cc2O)nn1)[C@H]1C[C@@H]2CCC[C@@H](N2)[C@H]1F [Compound 5B, 2-(6-(((1R,2R,3S,5S)-2-fluoro-9-azabicyclo[3.3.1]nonan-3-yl)(methyl)amino)pyridazin-3-yl)-5-(2H-1,2,3-triazol-2-yl)phenol] | 0.01 to 15 nM | 0.01 to 15 nM | 101 to 500 nM | 5.84 ×10⁻⁶ cm/s | 9.91 ×10⁻⁶ cm/s | 30% | 52% | 2 | – | – | – | – | – | – | – | – | –
